Several values for one entry are separate records, joined by “and”; a condition that tells them apart may be missing. Identical values can stand only once. Inconclusive results and toxic doses are left out. The calls were made as follows: active = survival T/C of 150% or more; inactive = T/C below 125% in these data.
Test system: P388 leukemia ip, CD2F1 mice, survival T/C
Assay: NCI In Vivo Anticancer Drug Screen. Data for tumor model P388 Leukemia (intraperitoneal) in CD2F1 (CDF1) mice
Details: endpoint: median survival time, higher = longer survival
Procedure, shortened: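 Mice carrying the transplanted tumor received test compound or vehicle. Survival was recorded in each group, and the value is the treated-group measurement divided by that of the vehicle-treated control group.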

[1] = dose: 100.0 mg/kg/injection, schedule: Q04DX003 (ip), vehicle: saline with Tween-80
[2] = dose: 25.0 mg/kg/injection, schedule: Q01DX009 (ip), vehicle: other
[3] = dose: 50.0 mg/kg/injection, schedule: Q01DX009 (ip), vehicle: other
[4] = dose: 50.0 mg/kg/injection, schedule: Q01DX009 (ip), vehicle: suspension in saline
[5] = dose: 100.0 mg/kg/injection, schedule: Q01DX009 (ip), vehicle: suspension in saline
[6] = dose: 25.0 mg/kg/injection, schedule: Q01DX009 (ip), vehicle: saline with Tween-80
[7] = dose: 100.0 mg/kg/injection, schedule: Q01DX001 (ip), vehicle: saline with Tween-80
[8] = dose: 200.0 mg/kg/injection, schedule: Q01DX001 (ip), vehicle: saline with Tween-80
[9] = dose: 400.0 mg/kg/injection, schedule: Q01DX001 (ip), vehicle: saline with Tween-80
[10] = dose: 50.0 mg/kg/injection, schedule: Q01DX009 (ip), vehicle: saline with Tween-80
[11] = dose: 100.0 mg/kg/injection, schedule: Q01DX009 (ip), vehicle: saline with Tween-80
[12] = dose: 200.0 mg/kg/injection, schedule: Q01DX009 (ip), vehicle: saline with Tween-80
[13] = dose: 50.0 mg/kg/injection, schedule: Q01DX005 (ip), vehicle: saline with Tween-80
[14] = dose: 100.0 mg/kg/injection, schedule: Q01DX005 (ip), vehicle: saline with Tween-80
[15] = dose: 200.0 mg/kg/injection, schedule: Q01DX005 (ip), vehicle: saline with Tween-80
[16] = dose: 60.0 mg/kg/injection, schedule: Q01DX005 (ip), vehicle: saline with Tween-80
[17] = dose: 120.0 mg/kg/injection, schedule: Q01DX005 (ip), vehicle: saline with Tween-80
[18] = dose: 240.0 mg/kg/injection, schedule: Q01DX005 (ip), vehicle: saline with Tween-80

Measured: T/C

CCOc1ccc(OCC)c(NC(=O)c2ccccc2)c1
inactive: [1] 100 % of control | dose: 200.0 mg/kg/injection, schedule: Q04DX003 (ip), vehicle: saline with Tween-80 95 % of control | dose: 400.0 mg/kg/injection, schedule: Q04DX003 (ip), vehicle: saline with Tween-80 95 % of control

c1ccc2c(c1)CCc1c(-c3ccncc3)n[nH]c1-2
inactive: dose: 12.5 mg/kg/injection, schedule: Q01DX009 (ip), vehicle: other 108 % of control | [2] 123 % of control | [3] 106 % of control | dose: 100.0 mg/kg/injection, schedule: Q01DX009 (ip), vehicle: other 104 % of control | dose: 200.0 mg/kg/injection, schedule: Q01DX009 (ip), vehicle: other 100 % of control

NC(Cc1ccccc1)P(=O)(O)O (configuration not stated)
inactive: dose: 25.0 mg/kg/injection, schedule: Q01DX009 (ip), vehicle: suspension in saline 97 % of control | [4] 99 % of control | [5] 99 % of control | dose: 200.0 mg/kg/injection, schedule: Q01DX009 (ip), vehicle: suspension in saline 97 % of control

CNC(=O)OCC1=C(COC(=O)NC)C(=O)c2ccccc2C1=O
inactive: dose: 6.25 mg/kg/injection, schedule: Q01DX005 (ip), vehicle: Klucel (hydroxypropylcellulose) (HPC) 96 % of control | dose: 12.5 mg/kg/injection, schedule: Q01DX005 (ip), vehicle: Klucel (hydroxypropylcellulose) (HPC) 105 % of control | dose: 25.0 mg/kg/injection, schedule: Q01DX005 (ip), vehicle: Klucel (hydroxypropylcellulose) (HPC) 112 % of control

COC(=O)CN1CC1
inactive: dose: 3.12 mg/kg/injection, schedule: Q01DX009 (ip), vehicle: saline with Tween-80 100 % of control | dose: 6.25 mg/kg/injection, schedule: Q01DX009 (ip), vehicle: saline with Tween-80 95 % of control | dose: 12.5 mg/kg/injection, schedule: Q01DX009 (ip), vehicle: saline with Tween-80 94 % of control | [6] 95 % of control

C1=CC2C3CSCC3C1C1CC21 (configuration not stated)
inactive: dose: 100.0 mg/kg/injection, schedule: Q04DX003 (ip), vehicle: saline 105 % of control | dose: 200.0 mg/kg/injection, schedule: Q04DX003 (ip), vehicle: saline 103 % of control | dose: 400.0 mg/kg/injection, schedule: Q04DX003 (ip), vehicle: saline 102 % of control

O=S(=O)(CCc1ccccc1)c1nc2ccccc2s1
inactive: dose: 60.0 mg/kg/injection, schedule: Q01DX005 (ip), vehicle: Klucel (hydroxypropylcellulose) (HPC) 99 % of control | dose: 120.0 mg/kg/injection, schedule: Q01DX005 (ip), vehicle: Klucel (hydroxypropylcellulose) (HPC) 100 % of control | dose: 240.0 mg/kg/injection, schedule: Q01DX005 (ip), vehicle: Klucel (hydroxypropylcellulose) (HPC) 101 % of control

NC(CS/C(Cl)=C/Cl)C(=O)O (configuration not stated)
inactive: dose: 12.0 mg/kg/injection, schedule: Q01DX009 (ip), vehicle: saline with Tween-80 117 % of control | dose: 27.0 mg/kg/injection, schedule: Q01DX009 (ip), vehicle: saline with Tween-80 117 % of control

C[C@]12CC[C@H](OC(=O)/C=C\c3ccc(N(CCCl)CCCl)cc3)CC1CC[C@@H]1C2CC[C@]2(C)NC(=O)CCC12 (some centres not stated)
inactive: [7] 100 % of control | [8] 100 % of control | [9] 100 % of control

Nc1nc2c(cnn2C2CCCO2)c(=O)[nH]1 (configuration not stated)
inactive: [7] 100 % of control | [8] 106 % of control | [9] 96 % of control

C[C@]12CC[C@@H](OC(=O)N(CCCl)N=O)C[C@@H]1CC[C@@H]1[C@@H]2CC[C@]2(C)C(=O)CC[C@@H]12
inactive: dose: 25.0 mg/kg/injection, schedule: Q01DX005 (ip), vehicle: other 105 % of control | [2] 121 % of control | dose: 31.2 mg/kg/injection, schedule: Q04DX003 (ip), vehicle: saline 111 % of control | dose: 50.0 mg/kg/injection, schedule: Q01DX005 (ip), vehicle: other 122 % of control | [3] 123 % of control | [10] 97 % of control | dose: 62.5 mg/kg/injection, schedule: Q04DX003 (ip), vehicle: saline 109 % of control | dose: 100.0 mg/kg/injection, schedule: Q01DX005 (ip), vehicle: other 114 % of control | [11] 100 % of control | dose: 125.0 mg/kg/injection, schedule: Q04DX003 (ip), vehicle: saline 108 % of control and 112 % of control | [12] 97 % of control | dose: 250.0 mg/kg/injection, schedule: Q04DX003 (ip), vehicle: saline 100 % of control

COC1OC(CO)C(O)C(O)C1NC(C)=O (configuration not stated)
inactive: [13] 99 % of control | [14] 100 % of control | [15] 104 % of control

CC(C)c1ccc(C2NC(C(=O)O)CS2)cc1 (configuration not stated)
inactive: [4] 93 % of control | [5] 90 % of control

CC(C)=Cc1cc(-c2cc(C=C(C)C)[nH]n2)n[nH]1
inactive: [16] 97 % of control | [17] 100 % of control | [18] 102 % of control

COC(=O)c1cc(-c2ccccc2)[nH]c1-c1ccccc1
inactive: dose: 12.5 mg/kg/injection, schedule: Q01DX009 (ip), vehicle: saline 105 % of control | dose: 25.0 mg/kg/injection, schedule: Q01DX009 (ip), vehicle: saline 104 % of control | dose: 50.0 mg/kg/injection, schedule: Q01DX009 (ip), vehicle: saline 102 % of control

COc1ccc(/C=N/NC(=O)c2ccc(OCc3nc4ccccc4[nH]3)cc2)cc1
inactive: dose: 25.0 mg/kg/injection, schedule: Q01DX005 (ip), vehicle: saline with Tween-80 100 % of control | [13] 105 % of control | [14] 100 % of control | [15] 100 % of control

COC(=O)C1(C2(C(=O)OC)NC(=S)NC(=O)C2C#N)CCCC1=O (configuration not stated)
inactive: [16] 108 % of control | [17] 105 % of control | [18] 105 % of control

C=C1CC2CCC1C2 (configuration not stated)
inactive: [6] 100 % of control | dose: 25.0 mg/kg/injection, schedule: Q04DX003 (ip), vehicle: saline with Tween-80 104 % of control | [10] 100 % of control | dose: 50.0 mg/kg/injection, schedule: Q04DX003 (ip), vehicle: saline with Tween-80 104 % of control | [11] 100 % of control | [1] 100 % of control

Cc1cc(C2(c3cc(C)c(O)c(CN(CC(=O)O)CC(=O)O)c3)OC(=O)c3ccccc32)cc(CN(CC(=O)O)CC(=O)O)c1O
inactive: [10] 100 % of control | [11] 100 % of control | [12] 97 % of control

Source: PubChem BioAssay AID330 (DTP/NCI, 2004)
